“And” between values parts separate entries of the source, which are not always exact repeats. Identical values can stand only once. Inconclusive results and toxic doses are left out. Rule for the calls: active = survival T/C of 150% or more; inactive = T/C below 125% in these data.
Test system: CD2F1 mice, L1210 leukemia ip, survival T/C
Experiment: NCI In Vivo Anticancer Drug Screen. Data for tumor model L1210 Leukemia (intraperitoneal) in CD2F1 (CDF1) mice
Settings: higher = longer survival
Outline: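 Tumor-bearing mice (transplanted tumor) were split into treated and vehicle control groups, and the measured endpoint of each treated group was divided by that of its vehicle controls.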

[1] = endpoint: mean survival time, dose: 100.0 mg/kg/injection, schedule: Q01DX009 (ip), vehicle: saline with Tween-80
[2] = endpoint: mean survival time, dose: 200.0 mg/kg/injection, schedule: Q01DX009 (ip), vehicle: saline with Tween-80
[3] = endpoint: mean survival time, dose: 400.0 mg/kg/injection, schedule: Q01DX009 (ip), vehicle: saline with Tween-80
[4] = endpoint: mean survival time, dose: 100.0 mg/kg/injection, schedule: Q04DX002 (ip), vehicle: saline with Tween-80
[5] = endpoint: mean survival time, dose: 200.0 mg/kg/injection, schedule: Q04DX002 (ip), vehicle: saline with Tween-80
[6] = endpoint: mean survival time, dose: 400.0 mg/kg/injection, schedule: Q04DX002 (ip), vehicle: saline with Tween-80
[7] = endpoint: mean survival time, dose: 100.0 mg/kg/injection, schedule: Q04DX003 (ip), vehicle: saline with Tween-80
[8] = endpoint: mean survival time, dose: 200.0 mg/kg/injection, schedule: Q04DX003 (ip), vehicle: saline with Tween-80
[9] = endpoint: mean survival time, dose: 400.0 mg/kg/injection, schedule: Q04DX003 (ip), vehicle: saline with Tween-80
[10] = endpoint: mean survival time, dose: 25.0 mg/kg/injection, schedule: Q01DX009 (ip), vehicle: saline with Tween-80
[11] = endpoint: mean survival time, dose: 50.0 mg/kg/injection, schedule: Q01DX009 (ip), vehicle: saline with Tween-80
[12] = endpoint: mean survival time, dose: 100.0 mg/kg/injection, schedule: Q01DX001 (ip), vehicle: saline with Tween-80
[13] = endpoint: mean survival time, dose: 25.0 mg/kg/injection, schedule: Q04DX002 (ip), vehicle: saline with Tween-80
[14] = endpoint: mean survival time, dose: 50.0 mg/kg/injection, schedule: Q04DX002 (ip), vehicle: saline with Tween-80
[15] = endpoint: mean survival time, dose: 200.0 mg/kg/injection, schedule: Q01DX001 (ip), vehicle: saline with Tween-80
[16] = endpoint: mean survival time, dose: 400.0 mg/kg/injection, schedule: Q01DX001 (ip), vehicle: saline with Tween-80
[17] = endpoint: mean survival time, dose: 100.0 mg/kg/injection, schedule: Q01DX001 (ip), vehicle: saline
[18] = endpoint: mean survival time, dose: 200.0 mg/kg/injection, schedule: Q01DX001 (ip), vehicle: saline
[19] = endpoint: mean survival time, dose: 400.0 mg/kg/injection, schedule: Q01DX001 (ip), vehicle: saline

Measured: T/C

COC(=O)C([NH-])c1ccccc1.COC(=O)C([NH-])c1ccccc1.[Cl][Pt+2][Cl] (stereo unspecified)
inactive: endpoint: median survival time, dose: 3.12 mg/kg/injection, schedule: Q04DX003 (ip), vehicle: saline 101 % of control | endpoint: median survival time, dose: 6.25 mg/kg/injection, schedule: Q04DX003 (ip), vehicle: saline 100 % of control | endpoint: median survival time, dose: 12.5 mg/kg/injection, schedule: Q04DX003 (ip), vehicle: saline 100 % of control | endpoint: median survival time, dose: 25.0 mg/kg/injection, schedule: Q04DX003 (ip), vehicle: saline 101 % of control | endpoint: median survival time, dose: 50.0 mg/kg/injection, schedule: Q04DX003 (ip), vehicle: saline 101 % of control | endpoint: median survival time, dose: 100.0 mg/kg/injection, schedule: Q04DX003 (ip), vehicle: saline 103 % of control

N#CC(/C=C/c1ccccc1)Nc1ccccc1N (stereo unspecified)
inactive: [1] 98 % of control | [2] 95 % of control | [3] 93 % of control

COc1ccc(C(C)O)cc1 (stereo unspecified)
inactive: [4] 104 % of control | [5] 93 % of control | [6] 97 % of control

C/C(=N\O)C(C)(O)C(C)(C)C (stereo unspecified)
inactive: [7] 90 % of control | [8] 98 % of control | [9] 93 % of control

O=C(O)CCNc1ccc2c(c1)B(O)OC2
inactive: [7] 98 % of control | [8] 101 % of control | [9] 98 % of control

CC(C)(C)CC(C)(C)c1ccc(O)cc1O
inactive: [10] 105 % of control | [11] 103 % of control | [12] 101 % of control | [1] 94 % of control

CCc1c(CC(=O)O)c2cc(C)ccc2n1Cc1ccc(Cl)cc1
inactive: endpoint: mean survival time, dose: 3.12 mg/kg/injection, schedule: Q01DX009 (ip), vehicle: Klucel (hydroxypropylcellulose) (HPC) 91 % of control | endpoint: mean survival time, dose: 6.25 mg/kg/injection, schedule: Q01DX009 (ip), vehicle: Klucel (hydroxypropylcellulose) (HPC) 104 % of control | endpoint: mean survival time, dose: 12.5 mg/kg/injection, schedule: Q01DX009 (ip), vehicle: Klucel (hydroxypropylcellulose) (HPC) 107 % of control | endpoint: mean survival time, dose: 25.0 mg/kg/injection, schedule: Q01DX009 (ip), vehicle: Klucel (hydroxypropylcellulose) (HPC) 102 % of control | endpoint: mean survival time, dose: 50.0 mg/kg/injection, schedule: Q01DX009 (ip), vehicle: Klucel (hydroxypropylcellulose) (HPC) 91 % of control | endpoint: mean survival time, dose: 100.0 mg/kg/injection, schedule: Q01DX009 (ip), vehicle: Klucel (hydroxypropylcellulose) (HPC) 96 % of control

CN1NC(=O)C2CCCC1O2 (stereo unspecified)
inactive: endpoint: mean survival time, dose: 12.5 mg/kg/injection, schedule: Q01DX009 (ip), vehicle: saline 106 % of control | endpoint: mean survival time, dose: 25.0 mg/kg/injection, schedule: Q01DX009 (ip), vehicle: saline 102 % of control | endpoint: mean survival time, dose: 50.0 mg/kg/injection, schedule: Q01DX009 (ip), vehicle: saline 105 % of control | endpoint: mean survival time, dose: 100.0 mg/kg/injection, schedule: Q01DX009 (ip), vehicle: saline 111 % of control

COc1ccccc1NC(=O)Oc1ccc(C2CCCCC2)cc1
inactive: [10] 108 % of control | [13] 100 % of control | [11] 97 % of control | [14] 100 % of control | [1] 104 % of control | [4] 92 % of control and 98 % of control

CSc1ncc(Br)c(Sc2nc(N)nc3nc[nH]c23)n1
inactive: endpoint: mean survival time, dose: 2.2 mg/kg/injection, schedule: Q01DX001 (ip), vehicle: saline with Tween-80 123 % of control | endpoint: mean survival time, dose: 3.0 mg/kg/injection, schedule: Q01DX001 (ip), vehicle: saline with Tween-80 117 % of control | endpoint: mean survival time, dose: 3.4 mg/kg/injection, schedule: Q01DX001 (ip), vehicle: saline with Tween-80 123 % of control | endpoint: mean survival time, dose: 4.4 mg/kg/injection, schedule: Q01DX001 (ip), vehicle: saline with Tween-80 122 % of control

CC(CC(=O)O)[Se][Se]C(C)CC(=O)O (stereo unspecified)
inactive: [12] 95 % of control | [15] 103 % of control

CC1(C)COC(c2ccccc2)OC1
inactive: [12] 95 % of control | [15] 103 % of control | [16] 101 % of control

O=C(O)CCSCCC(=O)O
inactive: [17] 100 % of control | [18] 105 % of control | [19] 101 % of control

Cc1cc(O)c(Br)c(C)c1Br
inactive: [1] 111 % of control | [7] 104 % of control | [2] 98 % of control | [8] 97 % of control | [3] 106 % of control | [9] 101 % of control

COc1c(NC(=O)Nc2ccccc2Cl)cccc1[N+](=O)[O-]
inactive: [13] 87 % of control | [14] 90 % of control | [4] 90 % of control

O=C1C2C3CCC(C3)C2C(=O)C2C3CCC(C3)C12 (stereo unspecified)
inactive: endpoint: mean survival time, dose: 100.0 mg/kg/injection, schedule: Q04DX003 (ip), vehicle: other 93 % of control | endpoint: mean survival time, dose: 200.0 mg/kg/injection, schedule: Q04DX003 (ip), vehicle: other 89 % of control | endpoint: mean survival time, dose: 400.0 mg/kg/injection, schedule: Q04DX003 (ip), vehicle: other 93 % of control

Cc1cc(OC(=O)Nc2cccc(Cl)c2Cl)ccc1Cl
inactive: endpoint: mean survival time, dose: 100.0 mg/kg/injection, schedule: Q01DX009 (ip), vehicle: other 101 % of control | endpoint: mean survival time, dose: 200.0 mg/kg/injection, schedule: Q01DX009 (ip), vehicle: other 103 % of control | endpoint: mean survival time, dose: 400.0 mg/kg/injection, schedule: Q01DX009 (ip), vehicle: other 106 % of control

CCCCC(CC)CNC(=O)CI (stereo unspecified)
inactive: [17] 96 % of control

C[Si]1(C)N(c2ccccc2)[Si](C)(C)N(c2ccccc2)[Si](C)(C)N1c1ccccc1
inactive: [1] 105 % of control | [7] 105 % of control | [2] 107 % of control | [8] 94 % of control | [3] 106 % of control | [9] 93 % of control

O=C1OCC2(C(=O)O)C(=O)OCC12 (stereo unspecified)
inactive: endpoint: mean survival time, dose: 50.0 mg/kg/injection, schedule: Q01DX001 (ip), vehicle: saline 97 % of control | [17] 106 % of control | [18] 106 % of control | [19] 101 % of control

CC(C)C1CCC(C)C23CCC(=O)C2C13 (stereo unspecified)
inactive: endpoint: mean survival time, dose: 100.0 mg/kg/injection, schedule: Q01DX001 (ip), vehicle: acetone 100 % of control | endpoint: mean survival time, dose: 200.0 mg/kg/injection, schedule: Q01DX001 (ip), vehicle: acetone 95 % of control | endpoint: mean survival time, dose: 400.0 mg/kg/injection, schedule: Q01DX001 (ip), vehicle: acetone 110 % of control

O=C(C(c1ccccc1)C(F)(F)F)N1CCCC1 (stereo unspecified)
inactive: [7] 97 % of control | [8] 100 % of control | [9] 97 % of control

CCc1ncc(C(C)(O)c2ccccc2)n1Cc1ccccc1 (stereo unspecified)
inactive: [1] 95 % of control | [2] 90 % of control | [3] 94 % of control

COc1ccc(OC)c(C(=O)C[n+]2ccccc2)c1
inactive: endpoint: mean survival time, dose: 12.5 mg/kg/injection, schedule: Q01DX009 (ip), vehicle: saline with Tween-80 101 % of control | endpoint: mean survival time, dose: 12.5 mg/kg/injection, schedule: Q04DX003 (ip), vehicle: saline 106 % of control | [10] 103 % of control | endpoint: mean survival time, dose: 25.0 mg/kg/injection, schedule: Q04DX003 (ip), vehicle: saline 109 % of control | [11] 100 % of control | endpoint: mean survival time, dose: 50.0 mg/kg/injection, schedule: Q04DX003 (ip), vehicle: saline 111 % of control

CC(C)C(C)(C)OC(=O)c1ccc([N+](=O)[O-])cc1
inactive: [17] 100 % of control | [18] 96 % of control | [19] 98 % of control

O=C1C(=O)c2cccnc2C(NCc2ccccc2)=C1Cl
inactive: endpoint: mean survival time, dose: 75.0 mg/kg/injection, schedule: Q04DX003 (ip), vehicle: saline 98 % of control | endpoint: mean survival time, dose: 150.0 mg/kg/injection, schedule: Q04DX003 (ip), vehicle: saline 101 % of control | endpoint: mean survival time, dose: 300.0 mg/kg/injection, schedule: Q04DX003 (ip), vehicle: saline 96 % of control

CCOC(=O)C1(C(=O)OCC)CCC(OCC)N1C(=O)c1ccccc1[N+](=O)[O-] (stereo unspecified)
inactive: endpoint: mean survival time, dose: 100.0 mg/kg/injection, schedule: Q01DX001 (ip), vehicle: Klucel (hydroxypropylcellulose) (HPC) 100 % of control | endpoint: mean survival time, dose: 200.0 mg/kg/injection, schedule: Q01DX001 (ip), vehicle: Klucel (hydroxypropylcellulose) (HPC) 92 % of control | endpoint: mean survival time, dose: 400.0 mg/kg/injection, schedule: Q01DX001 (ip), vehicle: Klucel (hydroxypropylcellulose) (HPC) 92 % of control

O=C(OCCOC(=O)N1CCOCC1)N1CCOCC1
inactive: [4] 101 % of control | [5] 97 % of control | [6] 101 % of control

Cc1ccoc1N(O)c1occc1C
inactive: [12] 93 % of control | [15] 101 % of control | [16] 95 % of control

From PubChem BioAssay AID256 (DTP/NCI, 2004)
